Reference: patent US11109593B2, “Isoxazolin-5-one derivative and herbicide containing same as active ingredient” (HOKKO CHEMICAL INDUSTRY CO., LTD., priority 2017, dated 2021)

What follows are compounds tested on Echinochloa crus-galli (assay: Test Example 1: herbicidal effect test by treatment of rice paddy soil (immediately after seeding)). Details: 120 g/10a active ingredient, dry weight vs untreated area, 14 days after treatment.
Type: in vivo
Summary of the method: (§1)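 Flooded paddy pot test in a glass greenhouse: emulsion diluted in water, dropped at 120 g a.i. per 10 ares just after sowing, water depth kept about 3 cm. Dry-weight reduction relative to untreated plants is scored at 14 days.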

Structure (SMILES)	Herbicidal rate (%) Echinochloa crus-galli [%]
CC(=O)N(c1ccccc1Cc1c(C)n(CC(C)(C)C)oc1=O)S(=O)(=O)C(F)(F)F [Compound 1-298]	90
C=CCOC(=O)N(c1ccccc1Cc1c(C)n(C(C)COC)oc1=O)S(=O)(=O)C(F)(F)F (stereo not drawn) [Compound 1-708]	90
CSCCn1oc(=O)c(Cc2ccccc2N(C(=O)OC(C)C)S(=O)(=O)C(F)(F)F)c1C [Compound 1-652]	90

The compounds below were run on Scirpus juncoides in the same assay as above. Details: 120 g/10a active ingredient, dry weight vs untreated area, 14 days after treatment.
Type: in vivo
Summary of the method: as §1

Structure (SMILES)	Herbicidal rate (%) Scirpus juncoides [%]
CC(=O)N(c1ccccc1Cc1c(C)n(CC(C)(C)C)oc1=O)S(=O)(=O)C(F)(F)F [Compound 1-298]	90
C=CCOC(=O)N(c1ccccc1Cc1c(C)n(C(C)COC)oc1=O)S(=O)(=O)C(F)(F)F (stereo not drawn) [Compound 1-708]	90
CSCCn1oc(=O)c(Cc2ccccc2N(C(=O)OC(C)C)S(=O)(=O)C(F)(F)F)c1C [Compound 1-652]	90

The compounds below were run on broad leaf weeds (Lindernia pyxidaria and Monochoria vaginalis) in the same assay as above. Details: Lindernia pyxidaria, 120 g/10a active ingredient, dry weight vs untreated area, 14 days after treatment.
Type: in vivo
Summary of the method: as §1

Structure (SMILES)	Herbicidal rate (%) Lindernia pyxidaria [%]
CC(=O)N(c1ccccc1Cc1c(C)n(CC(C)(C)C)oc1=O)S(=O)(=O)C(F)(F)F [Compound 1-298]	90
C=CCOC(=O)N(c1ccccc1Cc1c(C)n(C(C)COC)oc1=O)S(=O)(=O)C(F)(F)F (stereo not drawn) [Compound 1-708]	90
CSCCn1oc(=O)c(Cc2ccccc2N(C(=O)OC(C)C)S(=O)(=O)C(F)(F)F)c1C [Compound 1-652]	90

Same assay, conditions: Monochoria vaginalis, 120 g/10a active ingredient, dry weight vs untreated area, 14 days after treatment

Structure (SMILES)	Herbicidal rate (%) Monochoria vaginalis [%]
CC(=O)N(c1ccccc1Cc1c(C)n(CC(C)(C)C)oc1=O)S(=O)(=O)C(F)(F)F [Compound 1-298]	90
C=CCOC(=O)N(c1ccccc1Cc1c(C)n(C(C)COC)oc1=O)S(=O)(=O)C(F)(F)F (stereo not drawn) [Compound 1-708]	90
CSCCn1oc(=O)c(Cc2ccccc2N(C(=O)OC(C)C)S(=O)(=O)C(F)(F)F)c1C [Compound 1-652]	90

The compounds below were run on Echinochloa crus-galli (assay: Test Example 2: herbicidal effect test by treatment during growing period in paddy rice cultivation (seven days after seeding)). Details: 120 g/10a active ingredient, assessed 14 days after treatment, dry weight vs untreated area.
Type: in vivo
Summary of the method: (§2)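 Sow 30 seeds per species (0–1 cm) into puddled, fertilized paddy soil; keep flooded ~3 cm in greenhouse. Day 7 after seeding: drop water-diluted emulsion, 120 g a.i./10 ares. Harvest 14 d post-treatment; compare dry weight with untreated pots (duplicate).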

Structure (SMILES)	Herbicidal rate (%) Echinochloa crus-galli [%]
CC(=O)N(c1ccccc1Cc1c(C)n(CC(C)(C)C)oc1=O)S(=O)(=O)C(F)(F)F [Compound 1-298]	90
C=CCOC(=O)N(c1ccccc1Cc1c(C)n(C(C)COC)oc1=O)S(=O)(=O)C(F)(F)F (stereo not drawn) [Compound 1-708]	90
CSCCn1oc(=O)c(Cc2ccccc2N(C(=O)OC(C)C)S(=O)(=O)C(F)(F)F)c1C [Compound 1-652]	90

Each compound was assayed on Scirpus juncoides in the same assay as above. Details: 120 g/10a active ingredient, assessed 14 days after treatment, dry weight vs untreated area.
Type: in vivo
Summary of the method: as §2

Structure (SMILES)	Herbicidal rate (%) Scirpus juncoides [%]
CC(=O)N(c1ccccc1Cc1c(C)n(CC(C)(C)C)oc1=O)S(=O)(=O)C(F)(F)F [Compound 1-298]	90
C=CCOC(=O)N(c1ccccc1Cc1c(C)n(C(C)COC)oc1=O)S(=O)(=O)C(F)(F)F (stereo not drawn) [Compound 1-708]	90
CSCCn1oc(=O)c(Cc2ccccc2N(C(=O)OC(C)C)S(=O)(=O)C(F)(F)F)c1C [Compound 1-652]	90

These compounds were tested on broad leaf weeds (Lindernia pyxidaria and Monochoria vaginalis) in the same assay as above. Details: Lindernia pyxidaria, 120 g/10a active ingredient, assessed 14 days after treatment, dry weight vs untreated area.
Type: in vivo
Summary of the method: as §2

Structure (SMILES)	Herbicidal rate (%) Lindernia pyxidaria [%]
CC(=O)N(c1ccccc1Cc1c(C)n(CC(C)(C)C)oc1=O)S(=O)(=O)C(F)(F)F [Compound 1-298]	90
C=CCOC(=O)N(c1ccccc1Cc1c(C)n(C(C)COC)oc1=O)S(=O)(=O)C(F)(F)F (stereo not drawn) [Compound 1-708]	90
CSCCn1oc(=O)c(Cc2ccccc2N(C(=O)OC(C)C)S(=O)(=O)C(F)(F)F)c1C [Compound 1-652]	90

Same assay, conditions: Monochoria vaginalis, 120 g/10a active ingredient, assessed 14 days after treatment, dry weight vs untreated area

Structure (SMILES)	Herbicidal rate (%) Monochoria vaginalis [%]
CC(=O)N(c1ccccc1Cc1c(C)n(CC(C)(C)C)oc1=O)S(=O)(=O)C(F)(F)F [Compound 1-298]	90
C=CCOC(=O)N(c1ccccc1Cc1c(C)n(C(C)COC)oc1=O)S(=O)(=O)C(F)(F)F (stereo not drawn) [Compound 1-708]	90
CSCCn1oc(=O)c(Cc2ccccc2N(C(=O)OC(C)C)S(=O)(=O)C(F)(F)F)c1C [Compound 1-652]	90

The compounds below were run on Amaranthus viridis (assay: Test Example 3: herbicidal effect test by treatment of dry field farming soil (one day after seeding)). Details: 120 g/10a active ingredient, evaluated 14 days after treatment.
Type: in vivo
Summary of the method: (§3)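 Weeds were seeded into the upper soil layer of alluvial field soil and, one day afterwards, the soil surface was sprayed with water-diluted emulsion delivering 120 g active ingredient per 10 ares. Mean plant dry weight relative to untreated pots after 14 days gave the herbicidal rate, tested in duplicate.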

Structure (SMILES)	herbicidal rate, Amaranthus viridis [%]
CC(=O)N(c1ccccc1Cc1c(C)n(CC(C)(C)C)oc1=O)S(=O)(=O)C(F)(F)F [Compound 1-298]	90
C=CCOC(=O)N(c1ccccc1Cc1c(C)n(C(C)COC)oc1=O)S(=O)(=O)C(F)(F)F (stereo not drawn) [Compound 1-708]	90
CSCCn1oc(=O)c(Cc2ccccc2N(C(=O)OC(C)C)S(=O)(=O)C(F)(F)F)c1C [Compound 1-652]	90

These compounds were tested on Chenopodium album in the same assay as above. Details: 120 g/10a active ingredient, evaluated 14 days after treatment.
Type: in vivo
Summary of the method: as §3

Structure (SMILES)	herbicidal rate, Chenopodium album [%]
CC(=O)N(c1ccccc1Cc1c(C)n(CC(C)(C)C)oc1=O)S(=O)(=O)C(F)(F)F [Compound 1-298]	90
C=CCOC(=O)N(c1ccccc1Cc1c(C)n(C(C)COC)oc1=O)S(=O)(=O)C(F)(F)F (stereo not drawn) [Compound 1-708]	90
CSCCn1oc(=O)c(Cc2ccccc2N(C(=O)OC(C)C)S(=O)(=O)C(F)(F)F)c1C [Compound 1-652]	90

These compounds were tested on Echinochloa crus-galli in the same assay as above. Details: 120 g/10a active ingredient, evaluated 14 days after treatment.
Type: in vivo
Summary of the method: as §3

Structure (SMILES)	herbicidal rate, Echinochloa crus-galli [%]
CC(=O)N(c1ccccc1Cc1c(C)n(CC(C)(C)C)oc1=O)S(=O)(=O)C(F)(F)F [Compound 1-298]	90
C=CCOC(=O)N(c1ccccc1Cc1c(C)n(C(C)COC)oc1=O)S(=O)(=O)C(F)(F)F (stereo not drawn) [Compound 1-708]	90
CSCCn1oc(=O)c(Cc2ccccc2N(C(=O)OC(C)C)S(=O)(=O)C(F)(F)F)c1C [Compound 1-652]	90

Each compound was assayed on southern crabgrass in the same assay as above. Details: 120 g/10a active ingredient, evaluated 14 days after treatment.
Type: in vivo
Summary of the method: as §3

Structure (SMILES)	herbicidal rate, southern crabgrass [%]
CC(=O)N(c1ccccc1Cc1c(C)n(CC(C)(C)C)oc1=O)S(=O)(=O)C(F)(F)F [Compound 1-298]	90
C=CCOC(=O)N(c1ccccc1Cc1c(C)n(C(C)COC)oc1=O)S(=O)(=O)C(F)(F)F (stereo not drawn) [Compound 1-708]	90
CSCCn1oc(=O)c(Cc2ccccc2N(C(=O)OC(C)C)S(=O)(=O)C(F)(F)F)c1C [Compound 1-652]	90

What follows are compounds tested on Amaranthus viridis (assay: Test Example 4: herbicidal effect test by treatment of leave and stem in dry field farming (seven days after seeding)). Details: 120 g/10a active ingredient; emulsion sprayed seven days after seeding; evaluated 14 days after treatment.
Type: in vivo
Summary of the method: (§4)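 Duplicate pots were scored 14 days post-spray by dry weight, herbicidal rate = {1 − treated/untreated average dry weight} × 100. The water-diluted emulsion, equivalent to 120 g active ingredient per 10 ares in 100 L, was applied seven days after sowing 20 seeds each into the upper 1 cm of alluvial soil.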

Structure (SMILES)	herbicidal effect (herbicidal rate), Amaranthus viridis [%]
CC(=O)N(c1ccccc1Cc1c(C)n(CC(C)(C)C)oc1=O)S(=O)(=O)C(F)(F)F [Compound 1-298]	40
C=CCOC(=O)N(c1ccccc1Cc1c(C)n(C(C)COC)oc1=O)S(=O)(=O)C(F)(F)F (stereo not drawn) [Compound 1-708]	40
CSCCn1oc(=O)c(Cc2ccccc2N(C(=O)OC(C)C)S(=O)(=O)C(F)(F)F)c1C [Compound 1-652]	40

What follows are compounds tested on Chenopodium album in the same assay as above. Details: 120 g/10a active ingredient; emulsion sprayed seven days after seeding; evaluated 14 days after treatment.
Type: in vivo
Summary of the method: as §4

Structure (SMILES)	herbicidal effect (herbicidal rate), Chenopodium album [%]
CC(=O)N(c1ccccc1Cc1c(C)n(CC(C)(C)C)oc1=O)S(=O)(=O)C(F)(F)F [Compound 1-298]	40
C=CCOC(=O)N(c1ccccc1Cc1c(C)n(C(C)COC)oc1=O)S(=O)(=O)C(F)(F)F (stereo not drawn) [Compound 1-708]	40
CSCCn1oc(=O)c(Cc2ccccc2N(C(=O)OC(C)C)S(=O)(=O)C(F)(F)F)c1C [Compound 1-652]	40

What follows are compounds tested on Echinochloa crus-galli in the same assay as above. Details: 120 g/10a active ingredient; emulsion sprayed seven days after seeding; evaluated 14 days after treatment.
Type: in vivo
Summary of the method: as §4

Structure (SMILES)	herbicidal effect (herbicidal rate), Echinochloa crus-galli [%]
CC(=O)N(c1ccccc1Cc1c(C)n(CC(C)(C)C)oc1=O)S(=O)(=O)C(F)(F)F [Compound 1-298]	90
C=CCOC(=O)N(c1ccccc1Cc1c(C)n(C(C)COC)oc1=O)S(=O)(=O)C(F)(F)F (stereo not drawn) [Compound 1-708]	90
CSCCn1oc(=O)c(Cc2ccccc2N(C(=O)OC(C)C)S(=O)(=O)C(F)(F)F)c1C [Compound 1-652]	90

What follows are compounds tested on southern crabgrass in the same assay as above. Details: 120 g/10a active ingredient; emulsion sprayed seven days after seeding; evaluated 14 days after treatment.
Type: in vivo
Summary of the method: as §4

Structure (SMILES)	herbicidal effect (herbicidal rate), southern crabgrass [%]
CC(=O)N(c1ccccc1Cc1c(C)n(CC(C)(C)C)oc1=O)S(=O)(=O)C(F)(F)F [Compound 1-298]	90
C=CCOC(=O)N(c1ccccc1Cc1c(C)n(C(C)COC)oc1=O)S(=O)(=O)C(F)(F)F (stereo not drawn) [Compound 1-708]	90
CSCCn1oc(=O)c(Cc2ccccc2N(C(=O)OC(C)C)S(=O)(=O)C(F)(F)F)c1C [Compound 1-652]	90
